From ChEMBL document CHEMBL5338803, “Novel Medicinal Chemistry Strategies Targeting CDK5 for Drug Discovery” (J Med Chem, 2023) come the findings set out here.

One experiment concerns SH-SY5Y. The experiment in a line: Neuroprotective activity against amyloid beta (25 to 35)-induced cell damage in human SH-SY5Y cells assessed as survival rate at 10 uM measured after 72 hrs by MTT assay. It counts as functional. The note with it: read-out: Survival.
A short description of experiment [1]: Selectivity ratio of IC50 for CDK5 (unknown origin) to IC50 for CDK2 (unknown origin).
The target of a further experiment is CDK2/Cyclin A1 (Homo sapiens, UniProt P24941). The experiment can be described thus: Inhibition of CDK2/cyclin A (unknown origin). It counts as protein-complex assay.
In experiment [2] the target is Cyclin-dependent kinase 5 (Homo sapiens) (UniProt Q00535). The experiment in a line: Inhibition of CDK5 (unknown origin) at 10 uM relative to control.
Experiment [3] addresses Dual specificity tyrosine-phosphorylation-regulated kinase 1A (Homo sapiens) (UniProt Q13627). The experiment can be described thus: Inhibition of DYRK1A (unknown origin) at 10 uM relative to control.
For experiment [4], the target named is Glycogen synthase kinase-3 beta (Homo sapiens, UniProt P49841). The experiment in a line: Inhibition of GSK3beta (unknown origin).
Experiment [5] addresses Cyclin-dependent kinase 5/CDK5 activator 1 (Homo sapiens, UniProt Q00535). The experiment in a line: Inhibition of CDK5/p25 (unknown origin). The format is protein-complex assay.
Experiment [6] is described as follows: Selectivity index, ratio of IC50 for CDK2/cyclin A (unknown origin) to IC50 for CDK5/p25 (unknown origin).
In experiment [7] the target is Cyclin-dependent kinase 5 (Homo sapiens) (UniProt Q00535). The experiment can be described thus: Binding affinity to CDK5 (unknown origin) assessed as change in gibbs free energy.

A value given as a limit tells only on which side of the number the result lay.

Cyclin-dependent kinase 5 (Homo sapiens), sequence (Q00535 whole entry, looked up): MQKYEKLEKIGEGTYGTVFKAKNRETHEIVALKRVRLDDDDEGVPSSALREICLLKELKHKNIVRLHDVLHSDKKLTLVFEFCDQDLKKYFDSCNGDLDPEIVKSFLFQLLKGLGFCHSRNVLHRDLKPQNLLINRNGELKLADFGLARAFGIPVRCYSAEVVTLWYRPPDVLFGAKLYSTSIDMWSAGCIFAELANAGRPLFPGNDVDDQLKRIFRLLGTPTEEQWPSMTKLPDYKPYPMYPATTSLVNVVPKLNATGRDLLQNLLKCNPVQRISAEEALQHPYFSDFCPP
Cyclin-dependent kinase 5/CDK5 activator 1, sequence (Q00535 whole entry): as the sequence (Q00535 whole entry, looked up) above
Cyclin-dependent kinase 5/CDK5 activator 1, sequence (Q15078 whole entry, further chain): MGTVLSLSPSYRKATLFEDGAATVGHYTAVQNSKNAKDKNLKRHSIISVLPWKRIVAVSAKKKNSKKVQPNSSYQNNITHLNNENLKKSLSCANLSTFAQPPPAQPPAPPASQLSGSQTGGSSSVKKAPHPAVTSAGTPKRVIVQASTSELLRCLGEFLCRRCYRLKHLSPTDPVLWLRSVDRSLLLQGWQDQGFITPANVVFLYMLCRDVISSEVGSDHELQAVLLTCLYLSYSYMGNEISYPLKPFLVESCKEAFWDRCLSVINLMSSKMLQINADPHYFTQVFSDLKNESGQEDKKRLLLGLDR
Glycogen synthase kinase-3 beta, sequence (P49841 whole entry): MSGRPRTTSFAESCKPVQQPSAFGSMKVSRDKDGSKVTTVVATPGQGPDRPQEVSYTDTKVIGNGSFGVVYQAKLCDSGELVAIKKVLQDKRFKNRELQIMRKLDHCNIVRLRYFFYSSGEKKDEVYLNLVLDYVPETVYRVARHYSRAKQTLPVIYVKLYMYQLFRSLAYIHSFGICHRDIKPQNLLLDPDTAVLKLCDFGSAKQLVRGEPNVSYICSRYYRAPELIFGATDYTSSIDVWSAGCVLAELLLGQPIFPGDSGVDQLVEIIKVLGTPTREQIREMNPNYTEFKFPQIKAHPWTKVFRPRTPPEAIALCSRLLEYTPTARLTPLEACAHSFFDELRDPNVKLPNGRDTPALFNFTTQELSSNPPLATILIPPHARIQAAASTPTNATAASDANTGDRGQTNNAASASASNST

Turning to `NC(=O)CN1C(=O)C(O)(CC(=O)c2ccc3ccccc3c2)c2ccccc21` (centres undefined), the viability at 10 µM in the experiment with SH-SY5Y is 82.6%.

Regarding `O=C(NOc1ccccc1)Nc1csc(Cc2c(Cl)cccc2Cl)n1`, the Ratio IC50 in experiment [1] stood at 100. Also, the half-maximal inhibitory concentration (IC50) against CDK2/Cyclin A1 is > 100000 nM.

Consider `COc1ccc(OCC(=O)Nc2cccc(-c3nc4ccccc4c(=O)o3)c2)cc1`, for which, in the experiment with SH-SY5Y, the viability at 10 µM was 82.9%.

Take `NS(=O)(=O)c1cccc(Nc2ncc3c(n2)CCCC3)c1`: the inhibition in experiment [2] worked out at 98%; in experiment [3], 95%.

In turn, `O=C(Nc1cc(Br)ccn1)Nc1cccc2c1C1CCCCN1C2=O` (centres undefined) yielded an IC50 in experiment [4] of 22 nM.

Consider `O=C(C1=C(O)C(=O)N(CCc2c[nH]c3ccccc23)C1c1cccnc1)c1ccc(Cl)cc1` (centres undefined), for which, in the experiment with SH-SY5Y, the viability at 10 µM amounted to 82.8%.

On to `C[C@@]12CCC[C@H]1[C@@H]1CC[C@H]3C[C@H](N)CC[C@]3(C)[C@H]1CC2`, for which the IC50 in experiment [5] worked out at 6000 nM.

Consider `O=C(Nc1csc(Cc2c(Cl)cccc2Cl)n1)NN1CCOCC1`, for which, in experiment [6], the Ratio IC50 stood at 10.

`C[C@]12CC[C@H]3[C@@H](CCC4=CC(=O)CC[C@@]43C)[C@@H]1CC[C@@H]2C(=O)COS(=O)(=O)c1ccc(Br)cc1`: half-maximal inhibition in [5] (IC50) required 6000 nM.

For the molecule `COc1ccc(CC(=O)Cc2ccn([C@H]3C[C@@H](C(N)=O)C3)c2)cc1`, in [7], the deltaG was -23 kcal/mol. The IC50 is 9 nM in experiment [5] and 63 nM at CDK2/Cyclin A1.

With `CN1CCC(N(CC(=O)O)c2ccc3cnc(Nc4ccc(-n5ccc(CO)n5)cc4F)cc3n2)CC1`, in experiment [1], the Ratio IC50 amounted to 100. For the same molecule, the IC50 against CDK2/Cyclin A1 is 444 nM.

In the case of `CN1C(=O)COc2ccc(-c3nn(Cc4ccccc4)c(=O)c4ccccc34)cc21`, in the experiment with SH-SY5Y, the viability at 10 µM amounted to 80.1%.

Turning to `O=c1oc2cc(O)cc(O)c2c2ccccc12`, the inhibition stood at 62% in experiment [2] and 92.2% in [3].
